Legend:
[1] = tested on: human-derived olfactory receptor; assay: Human olfactory receptor-expressing cell array (404 sites, HEK293-C1/2 strain) on OneCell system; assay type: cell-based; conditions: concentration of 10 mM
Text: In the substrate used, hydrophilicity is increased by plasma treatment of the surface of a slide glass (Matsunami Glass Ind., Ltd.) by a plasma modifier (PM100, Yamato Scientific Co., Ltd.) It should be noted that a machine used for dot printing is a LaboJet-500 manufactured by MicroJet. […] When the array is left to stand on specific culture conditions and observed after 2 days, it is expected that added HEK293-C1/2 strain is proliferated on the sites on which the plasmid has been immobilized to form colonies. After that, the substrate having formed colonies thereon is loaded on the above OneCell system in the method shown in 2).

Olfr168 [2] = molecular target: T1, Olfr168 (Mus musculus, UniProt A0PK36); assay: Reconstruction experiment: cAMP-responsive luciferase in HEK 293T cells expressing Olfr168; assay type: cell-based; conditions: HEK 293T cells transiently expressing Olfr168, Gaolf, RTP1S, pGlosensor-22
T1 sequence (A0PK36 1-312): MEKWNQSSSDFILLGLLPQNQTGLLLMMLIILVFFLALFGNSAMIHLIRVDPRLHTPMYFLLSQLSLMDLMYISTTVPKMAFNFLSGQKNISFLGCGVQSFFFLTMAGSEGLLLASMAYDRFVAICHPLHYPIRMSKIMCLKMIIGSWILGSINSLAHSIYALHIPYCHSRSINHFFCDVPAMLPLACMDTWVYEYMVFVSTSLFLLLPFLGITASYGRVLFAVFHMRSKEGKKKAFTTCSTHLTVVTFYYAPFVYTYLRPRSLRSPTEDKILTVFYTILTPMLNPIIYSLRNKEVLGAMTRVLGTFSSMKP
Text: (§1) In order to verify whether or not the mouse-derived olfactory receptors obtained in the above 3) and 4) surely respond to odor molecules used for screening, a system in which adenylate cyclase is activated from a olfactory receptor through heterotrimeric G protein including Gaolf to accumulate cAMP from ATP, and luciferase expression is induced in an intracellular cAMP concentration-dependent manner, was reconstructed in HEK 293 cells.
(§2) Specifically, each of mouse-derived olfactory receptor genes, Olfr168, Olfr205, Olfr45 and Olfr166, and DNA coding for the amino acid sequence shown in SEQ ID NO:9 were fused. The obtained genes were incorporated into pME18S plasmid incorporated into downstream of SRa promoter, a plasmid having a base sequence coding for the amino acid sequence shown in SEQ ID NO:2 to allow Gaolf to be expressed, a plasmid to allow Receptor-transporting protein 1S (RTP1S) having a base sequence shown in SEQ ID NO:6, which is a factor to raise the efficiency of presentation of olfactory receptors from the Golgi body to the cell surface, to be expressed, and a cAMP-responsive luciferase expressing plasmid pGlosensor-22 (Promega Corporation). The plasmids are introduced into HEK 293T cells by Lipofectamine 2000 (Life Technologies) to cause transient expression.

Olfr168 [3] = molecular target: T1, Olfr168; assay: Fluo-4 Ca2+ uptake in isolated olfactory sensory neuron HI28-03 (calculation method (A)); assay type: cell-based; conditions: HI28-03 cells
Method: (§3) The olfactory epithelium-derived cells were stimulated as follows.
(§4) As a result, Olfr168 (mOR271-1; GenBank accession number: AY317252) and Olfr205 (mOR182-11P; GenBank accession number: BC150839) were identified in HI28-03 and HI25-18 respectively.
(§5) Specifically, the above Ca^2+ ringer solution was refluxed to the slide glass which had been put on the OneCell device and had stored olfactory epithelium-derived cells, and a Ca^2+ ringer solution containing 3 mM 2-pentanone described below was added thereto for 20 seconds every two minutes. The degree of increase in transient fluorescence intensity derived from Fluo-4 in each olfactory sensory neuron was repeatedly measured 5 times (FIG. 8).

Olfr205 [4] = molecular target: T2, Olfr205 (Mus musculus, UniProt B9EKD6); assay: Reconstruction experiment: cAMP-responsive luciferase in HEK293 cells expressing Olfr205; assay type: cell-based
T2 sequence (B9EKD6 1-305): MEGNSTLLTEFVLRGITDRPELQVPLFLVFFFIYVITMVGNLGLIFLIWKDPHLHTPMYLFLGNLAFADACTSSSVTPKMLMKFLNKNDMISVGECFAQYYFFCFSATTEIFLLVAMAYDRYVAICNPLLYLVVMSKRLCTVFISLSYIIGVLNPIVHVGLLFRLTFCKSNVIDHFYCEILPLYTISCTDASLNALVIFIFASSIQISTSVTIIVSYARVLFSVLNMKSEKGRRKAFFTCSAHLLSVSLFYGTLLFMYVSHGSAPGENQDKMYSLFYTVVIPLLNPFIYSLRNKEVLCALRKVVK
Text: as §1, §2

Olfr205 [5] = molecular target: T2, Olfr205; assay: Fluo-4 Ca2+ uptake in isolated olfactory sensory neuron HI25-18 (calculation method (A)); assay type: cell-based; conditions: HI25-18 cells
Method: as §3, §4, §5

[6] = tested on: olfactory sensory neurons; assay: OneCell system Fluo-4 screening of olfactory epithelium-derived cells stimulated by an odor molecule; assay type: cell-based, mouse; conditions: 2-pentanone (30 mM) for 10 seconds and (3 mM) for 10 seconds; of approximately 10000 olfactory sensory neurons
Method: C57/BL6J (male) aged 3 to 5 weeks were purchased from Japan SLC, Inc. The mice were beheaded after intravenous anesthesia with […] of Urethane solution (300 mg/mL; U2500, Sigma-Aldrich) and olfactory epithelium was extracted on ice. […] An equal amount of Ca^2+ ringer solution containing 0.1 mg/mL DNase I, 0.1 mg/mL BSA, and […] leupeptin (0.025 mg/mL trypsin inhibitor in the case of trypsin) was added thereto to stop the enzyme reaction, and the obtained solution then allowed to pass through a cell strainer twice to remove large tissue fragments.
The sample after removal was subjected to centrifugation treatment, and this was washed once to obtain an olfactory epithelium-derived cell solution.
as §3
The olfactory epithelium-derived cells were stimulated by an odor molecule, 2-pentanone (30 mM) for 10 seconds and 2-pentanone (3 mM) for 10 seconds under the above conditions, and olfactory sensory neurons included in olfactory epithelium-derived cells were then identified by a high K^+ ringer solution. As a result, approximately 100 of approximately 10000 olfactory sensory neurons reacted with 2-pentanone. […]

Olfr1258 = Olfr1258 (Mus musculus, UniProt Q8VGN6); assay: Reconstruction experiment: cAMP-responsive luciferase in HEK293 cells expressing Olfr1258; assay type: cell-based
Olfr166 [7] = molecular target: T3, Olfr166 (Mus musculus, UniProt Q8VGX2); conditions: HG28-24 cells, stimulation by pyridine
Method: (§6) The olfactory epithelium-derived cell solution obtained above was subjected to centrifugation at 1000 rpm for 5 minutes (2420, KUBOTA Co.) to remove the supernatant, and to this, a Ca^2+ ringer solution containing […] Fluo4-AM (F312, Dojindo) and 0.02 wt % Pluronic F-127 (P6867, Molecular Probes) was then added. A polystyrene slide having about 400000 nano chambers with a diameter of […] for As OneCell Picking system (AS ONE Corporation; automated single-cell analysis and isolation system [equipped with temperature control system, time lapse system, perfusion system]; Yoshimoto, et al., Scientific Reports Vol. 3 (2013) 1191; hereinafter this can be referred to as “OneCell system” in the description) was immersed in 2% PVP (polyvinyl pyrrolidone (NACALAI TESQUE, INC.)) and then put on a perfusion jig for the OneCell system. […]
(§7) Subsequently, the slide was put on a prescribed site of the OneCell system and maintained with a Ca^2+ ringer solution having been circulated, and fluorescent images derived from Fluo-4 of each olfactory epithelium-derived cell included in the nano chambers were observed through 4×objective lens, and changes in fluorescence intensity over time were recorded. […]

Olfr166 [8] = molecular target: T3, Olfr166; assay: cell-based
Text: as §1, §2

Olfr45 = Olfr45 (Mus musculus, UniProt A0JLW4); assay: cell-based
Method: as §6, §7

[9] = 3 mM 2-pentanone for 20 seconds every two minutes, measured 5 times
[10] = stimulation by 2-pentanone, experiment independently carried out 5 times, read-out: relative value of increased Fluo-4 fluorescence intensity (high K+ ringer depolarization considered 100%)

T3 sequence (Q8VGX2 1-312): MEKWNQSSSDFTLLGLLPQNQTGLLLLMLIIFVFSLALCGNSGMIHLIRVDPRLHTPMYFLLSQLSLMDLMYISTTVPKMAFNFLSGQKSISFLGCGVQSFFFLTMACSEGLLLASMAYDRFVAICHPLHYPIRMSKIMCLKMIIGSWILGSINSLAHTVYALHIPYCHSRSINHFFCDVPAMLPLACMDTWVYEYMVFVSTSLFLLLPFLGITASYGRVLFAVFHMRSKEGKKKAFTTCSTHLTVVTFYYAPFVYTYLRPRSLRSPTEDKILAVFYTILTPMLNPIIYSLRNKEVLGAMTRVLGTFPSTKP
Olfr45, sequence (A0JLW4 1-311): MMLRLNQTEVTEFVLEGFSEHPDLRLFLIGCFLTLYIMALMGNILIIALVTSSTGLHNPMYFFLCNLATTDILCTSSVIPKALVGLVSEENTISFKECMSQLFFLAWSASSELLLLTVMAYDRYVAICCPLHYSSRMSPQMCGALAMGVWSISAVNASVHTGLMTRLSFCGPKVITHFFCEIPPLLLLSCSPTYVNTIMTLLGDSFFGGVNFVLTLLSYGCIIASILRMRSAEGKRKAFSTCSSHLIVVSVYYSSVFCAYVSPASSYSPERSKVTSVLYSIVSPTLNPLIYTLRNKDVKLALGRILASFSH
Olfr1258, sequence (Q8VGN6 1-311): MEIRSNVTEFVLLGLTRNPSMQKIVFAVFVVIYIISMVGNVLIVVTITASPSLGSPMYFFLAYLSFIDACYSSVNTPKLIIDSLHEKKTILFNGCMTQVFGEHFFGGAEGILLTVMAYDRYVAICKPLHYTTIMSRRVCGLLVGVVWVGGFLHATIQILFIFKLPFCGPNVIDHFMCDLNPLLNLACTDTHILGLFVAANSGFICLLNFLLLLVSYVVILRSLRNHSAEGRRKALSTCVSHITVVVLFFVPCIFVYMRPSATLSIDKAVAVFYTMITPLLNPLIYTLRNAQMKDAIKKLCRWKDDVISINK

`COc1cc(C=O)ccc1O` [vanillin] was tested, and the “fluorescence intensity response of cells to the odor molecule” value [1] was “increase in fluorescence intensity was observed in some cells”.

`CCCC(C)=O` [2-pentanone] was tested, and the EC50 (Olfr168 [2]) was 2.1 ± 0.6 mM, the “increase in transient fluorescence intensity derived from Fluo-4” value (Olfr168 [3]; [9]) was 46±12 and the Emax (Olfr168 [3]; [10]) was 74 ± 3%. For the same molecule, the EC50 (Olfr205 [4]) was ~4 mM, the “increase in transient fluorescence intensity derived from Fluo-4” value (Olfr205 [5]; [9]) was 38±10 and the Emax (Olfr205 [5]; [10]) was 67 ± 4%. For the same molecule, the “number of olfactory sensory neurons that reacted with the odor molecule” value [6] was “approximately 100”.

Work on `CCC(C)=O` [2-butanone] yielded an EC50 (Olfr1258) of ~1.5 mM.

With `c1ccncc1` [pyridine] the “increased amount of fluorescence intensity derived from Fluo-4” value (Olfr166 [7]) was 153±47, the “relative value of increased Fluo-4 fluorescence intensity (high K+ ringer depolarization considered 100%)” value (Olfr166 [7]; experiment independently carried out 5 times) was 132±5% and the EC50 (Olfr166 [8]) was ~5 mM. The “increased amount of fluorescence intensity derived from Fluo-4” value (Olfr45; IG04-13 cells, stimulation by pyridine) was 195±70 and the Emax (Olfr45; read-out: relative value of increased Fluo-4 fluorescence intensity (high K+ ringer depolarization considered 100%)) was 120 ± 6%.

— patent US20240280562A1, “METHOD FOR QUANTIFYING ODORS, CELLS USED IN SAME, AND METHOD FOR PRODUCING SAID CELLS” (KOMI HAKKO CORPORATION, priority 2017, published 2024)
